Test results published in US20120149574A1, “Methods and Compositions for Managing Water Quality in a Body of Water” (priority 2010, published 2012).

Legend:
algae [1] = assay: Comparative pond treatment vs. copper sulfate alone, multiple applications: algae; format: in vivo, green algae (Chlorophyta), cyanobacteria (Cyanophyta)
Method: (§1) One pond was treated with a liquid composition prepared as in Example 1 (hereinafter termed “Composition E1”) and the other with copper sulfate pentahydrate. Both ponds were treated with the same concentration of copper on the same days. Five algaecide applications, each approximately one week apart, were conducted on the corresponding pond as a surface spray. The first application was a 1 ppm copper rate, whereas the following applications were all 0.5 ppm copper. All five treatments were completed by the 34th day following the initial treatment (“DAT”), though water sampling continued to evaluate changes in algae growth and water clarity. Representative water samples were periodically collected from each of the ponds at the same durations following treatments. […] As mentioned previously, when used alone, alum is generally applied at such high doses that a buffer is concurrently applied to prevent dramatic changes in water quality that can result in acute toxicity to aquatic organisms.

[2] = Comparative pond treatment, multiple applications: turbidity, phosphorus, water quality; conditions: five applications, FIGS. 11 and 12
Method: as §1

algae [3] = assay: Comparative pond treatment vs. copper sulfate alone, single application: algae; format: in vivo, green algae (Chlorophyta), cyanobacteria (Cyanophyta)
Method: (§2) Two ponds of similar dimensions (0.1 surface acres, 4 foot average depth) and similar water character, located beside each other, were used in this experiment. Both ponds were treated once (immediately following the initial sampling event) with the same concentration of copper, 1 ppm, and monitored through time. One pond was treated with Composition E1 and the other with copper sulfate pentahydrate. The objectives were 1) to evaluate the change in algae assemblage composition, 2) to measure algaecidal impacts and re-growth of algae, 3) to measure changes in phosphorus and turbidity following treatment.

[4] = Comparative pond treatment, single application: turbidity and total phosphorus; conditions: single application 1 ppm copper
Method: as §2

O.O.O.O.O.O=S(=O)([O-])[O-].[Cu+2] [copper sulfate, copper sulfate pentahydrate]
chlorophyll levels following cessation of the algaecide treatments (algae [1]; after fifth application (34 DAT) (FIG. 9)): rapidly and significantly increased | algal assemblage composition (algae [1]; during and after five applications (FIGS. 13 and 14)): cyanobacteria (Cyanophyta) became dominant | chlorophyll a concentration, highest measurements (algae [1]; five applications (1 ppm then 0.5 ppm copper), sampling to 69 DAT (FIG. 9), copper sulfate: many measurements, Composition E1: on one occasion): exceeding 100 μg/L | total phosphorus (TP) and free reactive phosphorus (FRP) concentrations over time [2]: substantially higher than the Composition E1-treated pond | algal assemblage following treatment (algae [3]; single application 1 ppm copper (FIGS. 18 and 19)): remained dominated by cyanobacteria | decrease of treated algae (algae [3]; single application 1 ppm copper, 7 DAT): 78% | chlorophyll a (algae [3]; single application 1 ppm copper, 7 DAT (FIG. 15)): significantly decreased | chlorophyll a (algae [3]; single application 1 ppm copper, 14 DAT (FIG. 15)): significantly higher | increase in algal densities (algae [3]; single application 1 ppm copper, between 7 and 14 DAT): 350% | total phosphorus ([4]; 7 DAT (FIG. 17)): little change | total phosphorus ([4]; 14 DAT vs initial (FIG. 17)): notable increase from initial levels
